Holding throughout (assay type): functional
Common to all, as to settings: read-out: IZ

Assay [1] concerns Escherichia coli. Description: Antibacterial activity against Escherichia coli at 250 ppm after 1 hr by agar well diffusion method. In general terms: A growth-free zone around the sample is the usual read-out of agar diffusion tests.
Assay [2] concerns Escherichia coli. Description: Antibacterial activity against Escherichia coli at 500 ppm after 1 hr by agar well diffusion method.
Assay [3] has as its system Escherichia coli. Description: Antibacterial activity against Escherichia coli at 750 ppm after 1 hr by agar well diffusion method.
For assay [4], the system named is Staphylococcus aureus. Description: Antibacterial activity against Staphylococcus aureus at 750 ppm after 1 hr by agar well diffusion method.
Assay [5] deals with Staphylococcus aureus. Description: Antibacterial activity against Staphylococcus aureus at 500 ppm after 1 hr by agar well diffusion method.
For assay [6], the system named is Staphylococcus aureus. Briefly: Antibacterial activity against Staphylococcus aureus at 250 ppm after 1 hr by agar well diffusion method.
The subject of assay [7] is Staphylococcus aureus. Briefly: Antibacterial activity against Staphylococcus aureus at 50 ppm after 1 hr by agar well diffusion method.
The subject of assay [8] is Staphylococcus aureus. Description: Antibacterial activity against Staphylococcus aureus at 100 ppm after 1 hr by agar well diffusion method.

Turning to `N#Cc1c(O)nc(N)nc1-c1cccc(Cl)c1`, the zone of inhibition at 250 ppm in the assay with Escherichia coli [1] was 4 mm. Moreover, in the assay with Escherichia coli [2], the zone of inhibition at 500 ppm came out at 7 mm. Also, the zone of inhibition at 750 ppm with Escherichia coli [3] came out at 11 mm; in the assay with Staphylococcus aureus [4] it was 5 mm.
With `COc1cc(-c2nc(N)nc(O)c2C#N)cc(OC)c1OC`, the zone of inhibition at 500 ppm in the assay with Staphylococcus aureus [5] was found to be 10 mm. In addition, the zone of inhibition at 750 ppm with Staphylococcus aureus [4] was 13 mm.
On to `N#Cc1c(O)nc(N)nc1-c1ccccc1[N+](=O)[O-]`, for which, in the assay on Escherichia coli [1], the zone of inhibition at 250 ppm is 3 mm. The zone of inhibition at 500 ppm turned out to be 5 mm with Escherichia coli [2] and 12 mm with Staphylococcus aureus [5]. Besides, the values for the zone of inhibition at 750 ppm with Escherichia coli [3] and with Staphylococcus aureus [4] were 9 mm and 15 mm, respectively.
On to `N#Cc1c(O)nc(N)nc1-c1cccc([N+](=O)[O-])c1`, for which the zone of inhibition at 250 ppm in the assay on Staphylococcus aureus [6] was 4 mm. The zone of inhibition at 500 ppm with Staphylococcus aureus [5] turned out to be 8 mm. The zone of inhibition at 750 ppm in the assay on Staphylococcus aureus [4] came to 14 mm.
On to `N#Cc1c(O)nc(N)nc1-c1ccccc1Cl`, for which the zone of inhibition at 500 ppm stood at 8 mm with Escherichia coli [2] and 9 mm in the assay with Staphylococcus aureus [5]. The zone of inhibition at 750 ppm with Escherichia coli [3] was 10 mm; with Staphylococcus aureus [4], 14 mm. In addition, the zone of inhibition at 250 ppm in the assay with Staphylococcus aureus [6] was 5 mm.
Regarding `N#Cc1c(O)nc(N)nc1-c1ccc(O)cc1`, the zone of inhibition at 500 ppm with Escherichia coli [2] is 6 mm; with Staphylococcus aureus [5], 8 mm. In addition, the zone of inhibition at 750 ppm was 10 mm in the assay with Escherichia coli [3] and 11 mm in the assay with Staphylococcus aureus [4]. The zone of inhibition at 250 ppm in the assay with Staphylococcus aureus [6] was 5 mm.
For the molecule `CN(C)c1ccc(-c2nc(N)nc(O)c2C#N)cc1`, the zone of inhibition at 250 ppm was determined as 4 mm in the assay with Escherichia coli [1] and 7 mm in the assay on Staphylococcus aureus [6]. Besides, the results for the zone of inhibition at 500 ppm with Escherichia coli [2] and with Staphylococcus aureus [5] were 7 mm and 9 mm, respectively. The zone of inhibition at 750 ppm in the assay on Escherichia coli [3] and with Staphylococcus aureus [4] was 11 mm throughout.
Consider `N#Cc1c(O)nc(N)nc1C/C=C/c1ccccc1`, for which the zone of inhibition at 250 ppm in the assay with Escherichia coli [1] worked out at 7 mm. Further, the zone of inhibition at 500 ppm in the assay on Escherichia coli [2] came to 9 mm; in the assay on Staphylococcus aureus [5], 5 mm. The figures for the zone of inhibition at 750 ppm in the assay on Escherichia coli [3] and in the assay with Staphylococcus aureus [4] were 12 mm and 9 mm, respectively.
On to `COc1ccc(C2NC(=N)NC(=O)C2C#N)cc1` (stereo unspecified), for which, in the assay with Staphylococcus aureus [4], the zone of inhibition at 750 ppm amounted to 5 mm.
As to `N#Cc1c(O)nc(N)nc1-c1ccccc1`, the zone of inhibition at 50 ppm in the assay with Staphylococcus aureus [7] worked out at 10 mm. Besides, the zone of inhibition at 100 ppm in the assay on Staphylococcus aureus [8] stood at 12 mm. Besides, the zone of inhibition at 250 ppm in the assay with Staphylococcus aureus [6] is 15 mm. The zone of inhibition at 500 ppm with Staphylococcus aureus [5] turned out to be 15 mm. The zone of inhibition at 750 ppm in the assay on Staphylococcus aureus [4] was determined as 18 mm.

The record behind these values is ChEMBL document CHEMBL1158359, “A novel and efficient one step synthesis of 2-amino-5-cyano-6-hydroxy-4-aryl pyrimidines and their anti-bacterial activity” (2009).
